Reference: patent publication US10874743B2, “IRAK degraders and uses thereof” (Kymera Therapeutics, Inc., priority 2017, dated 2020)
Several values for one entry are separate records, joined by “and”; a condition that tells them apart may be missing. Identical values can stand only once. Like-named read-outs stand apart in the source and are kept apart here.

Test: Pharmacokinetics in CD-1 mice (plasma concentrations, PK parameters)
Format: in vivo
Conditions: for AUC(0-t): read-out: AUC0-last; for MRT inf: read-out: MRT0-inf; for MRT last: read-out: MRT0-last; for Vd: read-out: Vdss
Method: Pharmacokinetics for I-127, I-172 and I-210 were determined in Sprague Dawley rats or CD-1 mice by dosing intravenous (IV), subcutaneous (SC) or per oral (PO) using facility SOPs and sampling plasma at required time points. Species, formulation, route of administration and time points samples are listed below for each compound.
Compounds were extracted from plasma, injected on reverse phase HPLC, eluted with a gradient from 5% to 95% acetonitrile in water and quantified by mass spectrometry with internal standard. Data are expressed in ng compound per mL of plasma.

[1] = CD-1, mouse, plasma, iv, 2 mg/kg, mouse (CD1) iv 2 mg/kg, Mean IV
[2] = CD-1, mouse, plasma, sc, 30 mg/kg, mouse (CD1) sc 30 mg/kg, Mean SC
[3] = CD-1, mouse, plasma, sc, 30 mg/kg, mouse (CD1) sc 30 mg/kg, individual M07-M09
[4] = mouse (CD1) iv 2 mg/kg, Mean IV
[5] = mouse (CD1) iv 2 mg/kg, individual M01-M03, 2 mg/kg
[6] = mouse (CD1) sc 30 mg/kg, individual M07-M09
[7] = mouse (CD1) sc 30 mg/kg, individual M07-M09, 30 mg/kg

## NC(=O)c1nn(-c2ccc(C(=O)NCCOCCOCCNc3cccc4c3C(=O)N(C3CCC(=O)NC3=O)C4=O)cc2)cc1NC(=O)c1coc(-c2ccnc(NCC(F)(F)F)c2)n1 (stereo not shown) [I-127, N-[3-carbamoyl-1-[4-[2-[2-[2-[[2-(2,6-dioxo-3-piperidyl)-1,3-dioxo-isoindolin-4-yl]amino]ethoxy]ethoxy]ethylcarbamoyl]phenyl]pyrazol-4-yl]-2-[2-(2,2,2-trifluoroethylamino)-4-pyridyl]oxazole-4-carboxamide]
CD-1, mouse, plasma, iv, 2 mg/kg, mouse (CD1) iv 2 mg/kg, 5 min, Mean IV, read-out: concentrations
  concentration at 5 min: 1290 ng/mL
CD-1, mouse, plasma, iv, 2 mg/kg, mouse (CD1) iv 2 mg/kg, 0.500 h, Mean IV, read-out: concentrations
  concentration at 0.5 h: 102 ng/mL
CD-1, mouse, plasma, iv, 2 mg/kg, mouse (CD1) iv 2 mg/kg, 1.00 h, Mean IV, read-out: concentrations
  concentration at 1 h: 49.7 ng/mL
CD-1, mouse, plasma, iv, 2 mg/kg, mouse (CD1) iv 2 mg/kg, 2.00 h, Mean IV, read-out: concentrations
  concentration at 2 h: 31.7 ng/mL
CD-1, mouse, plasma, iv, 2 mg/kg, mouse (CD1) iv 2 mg/kg, 4.00 h, Mean IV, read-out: concentrations
  concentration at 4 h: 12.2 ng/mL
CD-1, mouse, plasma, iv, 2 mg/kg, mouse (CD1) iv 2 mg/kg, 6.00 h, Mean IV, read-out: concentrations
  concentration at 6 h: 5.31 ng/mL
CD-1, mouse, plasma, iv, 2 mg/kg, mouse (CD1) iv 2 mg/kg, 24.0 h, individual M01-M03, read-out: concentrations
  concentration at 24 h: 2.2 ng/mL
[1]
  clearance: 84.9 mL/min/kg
  half-life: 3.65 h
  AUC(0-t): 496 ng·h/mL
  MRT inf: 1.54 h
  MRT last: 1.1 h
  Vd: 6.25 L/kg
CD-1, mouse, plasma, iv, 2 mg/kg, mouse (CD1) iv 2 mg/kg, Mean IV, read-out: AUC0-inf
  AUC(0-inf): 511 ng·h/mL
CD-1, mouse, plasma, iv, 2 mg/kg, mouse (CD1) iv 2 mg/kg, Mean IV, read-out: C0
  C0: 2160 ng/mL
CD-1, mouse, plasma, iv, 2 mg/kg, mouse (CD1) iv 2 mg/kg, individual M01-M03
  Vd: 5.73 L/kg
[2]
  AUC(0-t): 39.8 ng·h/mL
  MRT last: 11.3 h
CD-1, mouse, plasma, sc, 30 mg/kg, mouse (CD1) sc 30 mg/kg, Mean SC, read-out: Cmax
  Cmax: 2.91 ng/mL
CD-1, mouse, plasma, sc, 30 mg/kg, mouse (CD1) sc 30 mg/kg, Mean SC, read-out: Tmax
  Tmax: 2.67 h
[3]
  half-life: 39.2 h
  AUC(0-t): 33 ng·h/mL
  MRT inf: 54.2 h
  MRT last: 11.7 h
CD-1, mouse, plasma, sc, 30 mg/kg, mouse (CD1) sc 30 mg/kg, individual M07-M09, read-out: AUC0-inf
  AUC(0-inf): 144 ng·h/mL
CD-1, mouse, plasma, sc, 30 mg/kg, mouse (CD1) sc 30 mg/kg, individual M07-M09, read-out: Tmax
  Tmax: 2 h
CD-1, plasma, mouse (CD1) sc 30 mg/kg, Mean SC
  bioavailability: 0.534%
Mouse (CD1) iv 2 mg/kg, 5 min, individual M01-M03, 2 mg/kg
  concentrations: 2310 ng/mL and 831 ng/mL and 738 ng/mL
Mouse (CD1) iv 2 mg/kg, 0.500 h, individual M01-M03, 2 mg/kg
  concentrations: 166 ng/mL and 58.7 ng/mL and 82.1 ng/mL
Mouse (CD1) iv 2 mg/kg, 1.00 h, individual M01-M03, 2 mg/kg
  concentrations: 91 ng/mL and 22.3 ng/mL and 35.8 ng/mL
Mouse (CD1) iv 2 mg/kg, 2.00 h, individual M01-M03, 2 mg/kg
  concentrations: 51.5 ng/mL and 12.7 ng/mL and 30.9 ng/mL
Mouse (CD1) iv 2 mg/kg, 4.00 h, individual M01-M03, 2 mg/kg
  concentrations: 18.6 ng/mL and 7.08 ng/mL and 10.9 ng/mL
Mouse (CD1) iv 2 mg/kg, 6.00 h, individual M01-M03, 2 mg/kg
  concentrations: 8.13 ng/mL and 3.38 ng/mL and 4.42 ng/mL
Mouse (CD1) iv 2 mg/kg, 24.0 h, individual M01-M03, 2 mg/kg
  concentrations: BQL
[4]
  AUCExtra: 2.97%
  AUMCExtra: 29.9%
[5]
  AUC0-last: 896 ng·h/mL and 278 ng·h/mL and 316 ng·h/mL
  AUC(0-inf): 919 ng·h/mL and 288 ng·h/mL and 325 ng·h/mL
  AUCExtra: 2.57% and 3.55% and 2.80%
  AUMCExtra: 33.8% and 34.9% and 20.8%
  C0: 3910 ng/mL and 1412 ng/mL and 1145 ng/mL
  Cl: 36.3 mL/min/kg and 116 mL/min/kg and 103 mL/min/kg
  MRT0-inf: 2.63 h and 0.916 h and 1.08 h
  MRT0-last: 1.79 h and 0.618 h and 0.882 h
  T1/2: 7.43 h and 2.09 h and 1.43 h
  Tlast: 24.0 h and 6.00 h (2×)
  Vdss: 6.36 L/kg and 6.67 L/kg
Mouse (CD1) po 30 mg/kg, 0.500 h, individual M04-M06
  concentrations: BQL
Mouse (CD1) po 30 mg/kg, 1.00 h, individual M04-M06
  concentrations: BQL
Mouse (CD1) po 30 mg/kg, 2.00 h, individual M04-M06
  concentrations: BQL
Mouse (CD1) po 30 mg/kg, 4.00 h, individual M04-M06
  concentrations: BQL
Mouse (CD1) po 30 mg/kg, 6.00 h, individual M04-M06
  concentrations: BQL
Mouse (CD1) po 30 mg/kg, 24.0 h, individual M04-M06
  concentrations: BQL
Mouse (CD1) sc 30 mg/kg, 0.500 h, Mean SC
  concentrations: 1.81 ng/mL
Mouse (CD1) sc 30 mg/kg, 0.500 h, individual M07-M09, 30 mg/kg
  concentrations: 1.29 ng/mL and 2.28 ng/mL and 1.85 ng/mL
Mouse (CD1) sc 30 mg/kg, 1.00 h, Mean SC
  concentrations: 2 ng/mL
Mouse (CD1) sc 30 mg/kg, 1.00 h, individual M07-M09, 30 mg/kg
  concentrations: 1.87 ng/mL and 2.51 ng/mL and 1.61 ng/mL
Mouse (CD1) sc 30 mg/kg, 2.00 h, Mean SC
  concentrations: 2.88 ng/mL
Mouse (CD1) sc 30 mg/kg, 2.00 h, individual M07-M09, 30 mg/kg
  concentrations: 2.21 ng/mL and 4.61 ng/mL and 1.82 ng/mL
Mouse (CD1) sc 30 mg/kg, 4.00 h, Mean SC
  concentrations: 1.59 ng/mL
Mouse (CD1) sc 30 mg/kg, 4.00 h, individual M07-M09, 30 mg/kg
  concentrations: 1.01 ng/mL and 1.86 ng/mL and 1.9 ng/mL
Mouse (CD1) sc 30 mg/kg, 6.00 h, Mean SC
  concentrations: 1.8 ng/mL
Mouse (CD1) sc 30 mg/kg, 6.00 h, individual M07-M09, 30 mg/kg
  concentrations: 1.41 ng/mL and 2.82 ng/mL and 1.18 ng/mL
Mouse (CD1) sc 30 mg/kg, 24.0 h, Mean SC
  concentrations: 1.38 ng/mL
Mouse (CD1) sc 30 mg/kg, 24.0 h, individual M07-M09, 30 mg/kg
  concentrations: 1.3 ng/mL and 1.58 ng/mL and 1.26 ng/mL
Mouse (CD1) sc 30 mg/kg, Mean SC
  Tlast: 24.0 h
[6]
  AUCExtra: 62.1%
  AUMCExtra: 92.4%
  Tlast: 24.0 h
[7]
  AUC0-last: 54.5 ng·h/mL and 31.7 ng·h/mL
  Cmax: 2.21 ng/mL and 4.61 ng/mL and 1.90 ng/mL
  MRT0-last: 10.9 h and 11.4 h
  Tmax: 4.00 h
